Source: ChEMBL document CHEMBL3885861, “Open TG-GATES”

Species: Rattus norvegicus
Test: Open TG-GATES - Regimen: Daily Repeat
Format: toxicity, organism-based, Sprague-Dawley
Design: regimen Daily Repeat, gender Male, age 6 weeks
Settings: in vivo, po, route gavage; for TP / gamma-GTP / ALP / ALT / AST / CRE / Ca / Cl / DBIL / GLC / IP / K / LDH / RALB / TBIL / TC / TG: tissue Plasma; for APTT / Bas / Eos / Fbg / Ht / Lym / MCH / MCHC / MCV / Mono / PT / Plat / RBC / Ret / WBC / Neu: tissue Blood; for KIDNEY_L / KIDNEY_R / KIDNEY_TOTAL: tissue Kidney
[1] = 10 mg/kg, […], dose level Low, time 28 day
[2] = 30 mg/kg, 72 h, dose level Middle, time 3 day
[3] = 30 mg/kg, […], dose level Middle, time 7 day
[4] = 30 mg/kg, […], dose level Middle, time 14 day
[5] = 30 mg/kg, […], dose level Middle, time 28 day

Cn1c(=O)c2c(ncn2C)n(C)c1=O [CAFFEINE] gave a TP [1] of 6 g/dL, a gamma-GTP [1] of 2.4 IU/L and a TERMINAL_BW [2] of 223.8 g. The APTT [2] was 20.9 s, the Bas [2] was 0% and the Eos [2] was 0.8%. For the same compound, the Fbg [2] was 330 mg/dL, the Ht [2] was 41.1% and the Lym [2] was 84%. It also gave an MCH [2] of 21.2 pg, an MCHC [2] of 33.4% and an MCV [2] of 63.6 fL. The Mono [2] was 1.2%, the PT [2] was 15.5 s and the Plat [2] was 114.5 x10_4/uL. For the same compound, the RBC [2] was 646.4 x10_4/ul, the Ret [2] was 5.2% and the WBC [2] was 61.4 x10_2/uL. The KIDNEY_L [2] was 1 g, the KIDNEY_R [2] was 1 g and the KIDNEY_TOTAL [2] was 2 g. For the same compound, the ALP [2] was 1647.8 IU/L, the ALT [2] was 40 IU/L and the AST [2] was 67.4 IU/L. The CRE [2] was 0.2 mg/dL, the Ca [2] was 10.7 mg/dL and the Cl [2] was 108.8 meq/L. It also gave a DBIL [2] of 0 mg/dL, a GLC [2] of 179.6 mg/dL and an IP [2] of 8.1 mg/dL. It also gave a K [2] of 4.4 meq/L, an LDH [2] of 140.2 IU/L and an RALB [2] of 3.1 g/dL. The TBIL [2] was 0.004 mg/dL, the TC [2] was 73.8 mg/dL and the TG [2] was 87.6 mg/dL. The TP [2] was 5.6 g/dL, the gamma-GTP [2] was 1.2 IU/L and the TERMINAL_BW [3] was 245.2 g. The TERMINAL_BW [4] was 286.3 g, the TERMINAL_BW [5] was 380.2 g and the APTT [3] was 23.2 s. The Bas [3] was 0%, the Eos [3] was 0.8% and the Fbg [3] was 310.2 mg/dL. For the same compound, the Lym [3] was 80.8%, the MCHC [3] was 33.6% and the MCV [3] was 60.9 fL. It also gave a Mono [3] of 1.4%, a Neu [3] of 16% and a PT [3] of 15.2 s. It also gave a Plat [3] of 115.9 x10_4/uL, an RBC [3] of 687.8 x10_4/ul and a Ret [3] of 5.4%. It also gave a WBC [3] of 79 x10_2/uL, an APTT [4] of 23.9 s and a Bas [4] of 0%. The Eos [4] was 1%, the Fbg [4] was 309 mg/dL and the Ht [4] was 43.4%. For the same compound, the Lym [4] was 76.2%, the MCH [4] was 19.7 pg and the MCHC [4] was 33.7%. The MCV [4] was 58.4 fL, the Mono [4] was 2% and the Neu [4] was 20%. For the same compound, the PT [4] was 15.2 s, the Plat [4] was 109.9 x10_4/uL and the RBC [4] was 743.8 x10_4/ul. The Ret [4] was 3.9%, the WBC [4] was 108 x10_2/uL and the Bas [5] was 0%. The Eos [5] was 1%, the Fbg [5] was 315.2 mg/dL and the Ht [5] was 43.1%. It also gave a Lym [5] of 79.6%, an MCH [5] of 19.4 pg and an MCHC [5] of 35%. For the same compound, the MCV [5] was 55.4 fL, the Mono [5] was 2.4% and the PT [5] was 15.5 s. The Plat [5] was 100.3 x10_4/uL, the RBC [5] was 778.6 x10_4/ul and the Ret [5] was 2.7%. The WBC [5] was 99.4 x10_2/uL, the KIDNEY_L [3] was 1 g and the KIDNEY_R [3] was 1 g. It also gave a KIDNEY_TOTAL [3] of 2.1 g, a KIDNEY_L [4] of 1.1 g and a KIDNEY_R [4] of 1.2 g. The KIDNEY_TOTAL [4] was 2.3 g, the KIDNEY_L [5] was 1.5 g and the KIDNEY_R [5] was 1.5 g. For the same compound, the KIDNEY_TOTAL [5] was 3 g, the ALP [3] was 1455 IU/L and the ALT [3] was 45.6 IU/L. The AST [3] was 75.6 IU/L, the CRE [3] was 0.1 mg/dL and the Ca [3] was 10.4 mg/dL. For the same compound, the Cl [3] was 106.4 meq/L, the DBIL [3] was 0 mg/dL and the GLC [3] was 182.4 mg/dL. The IP [3] was 7.7 mg/dL, the K [3] was 4.1 meq/L and the LDH [3] was 158.8 IU/L. It also gave an RALB [3] of 3.1 g/dL, a TBIL [3] of 0.01 mg/dL and a TC [3] of 74.6 mg/dL. It also gave a TG [3] of 79.8 mg/dL, a TP [3] of 5.7 g/dL and a gamma-GTP [3] of 1.6 IU/L. For the same compound, the ALP [4] was 1460.4 IU/L, the ALT [4] was 47.6 IU/L and the AST [4] was 75.6 IU/L. For the same compound, the CRE [4] was 0.2 mg/dL, the Ca [4] was 10.4 mg/dL and the Cl [4] was 106.6 meq/L. For the same compound, the DBIL [4] was 0 mg/dL, the GLC [4] was 196 mg/dL and the IP [4] was 7 mg/dL. For the same compound, the K [4] was 4.2 meq/L, the LDH [4] was 145.8 IU/L and the RALB [4] was 3 g/dL. For the same compound, the TBIL [4] was 0.002 mg/dL, the TC [4] was 73.2 mg/dL and the TG [4] was 139.6 mg/dL. It also gave a TP [4] of 5.9 g/dL, a gamma-GTP [4] of 2.4 IU/L and an ALP [5] of 1003 IU/L. It also gave an ALT [5] of 44.8 IU/L, an AST [5] of 71.8 IU/L and a CRE [5] of 0.2 mg/dL. The Ca [5] was 10.7 mg/dL, the Cl [5] was 105.2 meq/L and the DBIL [5] was 0 mg/dL. For the same compound, the GLC [5] was 189.6 mg/dL, the IP [5] was 7.6 mg/dL and the K [5] was 3.9 meq/L. It also gave an LDH [5] of 126.6 IU/L, an RALB [5] of 3.2 g/dL and a TBIL [5] of 0.01 mg/dL. It also gave a TC [5] of 85.8 mg/dL.
